# Measurements as given in the CombiSolv-Exp solvation set (Vermeire and Green 2021).
# Assay: solvent given as SMILES
smiles,measurement,setting,value
CCc1ccccc1,"solvation free energy, 298 K",in C1CCOC1,-6.03 kcal/mol
same,"solvation free energy, 298 K",in C1COCCO1,-5.7 kcal/mol
same,"solvation free energy, 298 K",in C=CCCCCCCCCCCCCCC,-5.07 kcal/mol
same,"solvation free energy, 298 K",in CC#N,-5.19 kcal/mol
same,"solvation free energy, 298 K",in CC(=O)N(C)C,-5.46 kcal/mol
same,"solvation free energy, 298 K",in CC(C)(C)O,-4.99 kcal/mol
same,"solvation free energy, 298 K",in CC(C)CC(C)(C)C,-5.3 kcal/mol
same,"solvation free energy, 298 K",in CC(C)CO,-4.95 kcal/mol
same,"solvation free energy, 298 K",in CC(C)O,-4.88 kcal/mol
same,"solvation free energy, 298 K",in CC(O)CO,-4.1 kcal/mol
same,"solvation free energy, 298 K",in CCC#N,-5.78 kcal/mol
same,"solvation free energy, 298 K",in CCC(C)=O,-5.62 kcal/mol
same,"solvation free energy, 298 K",in CCCC#N,-5.6 kcal/mol
same,"solvation free energy, 298 K",in CCCCC(CC)COC(=O)CCCCC(=O)OCC(CC)CCCC,-5.37 kcal/mol
same,"solvation free energy, 298 K",in CCCCCC,-5.35 kcal/mol
same,"solvation free energy, 298 K",in CCCCCCC,-5.36 kcal/mol
same,"solvation free energy, 298 K",in CCCCCCCCCC,-5.23 kcal/mol
same,"solvation free energy, 298 K",in CCCCCCCCCCCCCCCC,-5.16 kcal/mol
same,"solvation free energy, 298 K",in CCCCCCCCO,-5.05 kcal/mol
same,"solvation free energy, 298 K",in CCCCN(C=O)CCCC,-5.44 kcal/mol
same,"solvation free energy, 298 K",in CCCCOC(=O)c1ccccc1C(=O)OCCCC,-5.38 kcal/mol
same,"solvation free energy, 298 K",in CCCO,-4.93 kcal/mol
same,"solvation free energy, 298 K",in CCO,-4.83 kcal/mol
same,"solvation free energy, 298 K",in CCOC(=O)c1ccccc1C(=O)OCC,-5.23 kcal/mol
same,"solvation free energy, 298 K",in CN(C)C=O,-5.41 kcal/mol
same,"solvation free energy, 298 K",in CNC(C)=O,-5.05 kcal/mol
same,"solvation free energy, 298 K",in CNC=O,-4.82 kcal/mol
same,"solvation free energy, 298 K",in CO,-4.86 kcal/mol
same,"solvation free energy, 298 K",in COCCO,-5.05 kcal/mol
same,"solvation free energy, 298 K",in Clc1ccccc1,-5.84 kcal/mol
same,"solvation free energy, 298 K",in NC=O,-3.26 kcal/mol
same,"solvation free energy, 298 K",in O,-0.72 kcal/mol
same,"solvation free energy, 298 K",in O=CN1CCOCC1,-5.01 kcal/mol
same,"solvation free energy, 298 K",in O=Cc1ccco1,-5.04 kcal/mol
same,"solvation free energy, 298 K",in OCCCCCO,-4.4 kcal/mol
same,"solvation free energy, 298 K",in OCCCCO,-4.2 kcal/mol
same,"solvation free energy, 298 K",in OCCCO,-3.91 kcal/mol
same,"solvation free energy, 298 K",in OCCO,-3.36 kcal/mol
same,"solvation free energy, 298 K",in OCCOCCO,-4.15 kcal/mol
same,"solvation free energy, 298 K",in OCCOCCOCCO,-4.31 kcal/mol
same,"solvation free energy, 298 K",in OCCOCCOCCOCCO,-4.38 kcal/mol
